Columns and labels:
[1] = Lipophilicity, log D of the compound in octanol at pH 7.4; assay type: physicochemical
[2] = test system: human transporter (not named); test: Apparent permeability of the compound in MDCK cells expressing human transporter […]; assay type: ADME, cell-based, Canis lupus familiaris; conditions: dog
[3] = Ratio of total drug uptake in brain to blood in Han Wistar rat after 1 hr; assay type: ADME, tissue-based; conditions: brain and blood, read-out: BBR

logD [1]	Papp [2]	Kp at 1 h [3]	Compound
0.6	–	–	N#Cc1cnc2c(C(=O)N[C@H]3C4CC5CC3C[C@](O)(C5)C4)cnn2c1
2.8	–	–	O=C(N[C@H]1C2CC3CC1C[C@](O)(C3)C2)c1cnn2c(C(F)F)cc(C3CC3)nc12
2.9	–	–	Cc1cc(C)n2ncc(C(=O)N[C@H]3C4CC5CC3C[C@](C#N)(C5)C4)c2n1
2.6	49 ×10⁻⁶ cm/s	–	CO[C@]12CC3CC(C1)[C@@H](NC(=O)c1cnn4cc(C)cnc14)C(C3)C2
3.5	–	–	O=C(NC1C2CC3CC(C2)CC1C3)c1cnn2cccnc12 (stereo not given)
2.3	46 ×10⁻⁶ cm/s	1.6	Cc1cnc2c(C(=O)N[C@H]3C4CC5CC3C[C@](C#N)(C5)C4)cnn2c1
2.5	41 ×10⁻⁶ cm/s	0.6	N#C[C@]12CC3CC(C1)[C@@H](NC(=O)c1cnn4cc(Cl)cnc14)C(C3)C2
1.9	–	–	Cc1ccn2ncc(C(=O)N[C@H]3C4CC5CC3C[C@](O)(C5)C4)c2n1
2	–	–	O=C(N[C@H]1C2CC3CC1C[C@](O)(C3)C2)c1cnn2c(C(F)(F)F)ccnc12
2.1	–	–	COCc1cc(C)nc2c(C(=O)N[C@H]3C4CC5CC3C[C@](O)(C5)C4)cnn12
2.4	–	–	COCc1cc(C)n2ncc(C(=O)N[C@H]3C4CC5CC3C[C@](C#N)(C5)C4)c2n1
2.4	–	–	Cc1ccnc2c(C(=O)N[C@H]3C4CC5CC3C[C@](C#N)(C5)C4)cnn12
1.6	–	–	N#C[C@]12CC3CC(C1)[C@@H](NC(=O)c1cnn4cc(CCO)cnc14)C(C3)C2

Continued, compound first:

Compound	logD [1]	Papp [2]	Kp at 1 h [3]
Cc1cc(C(F)(F)F)n2ncc(C(=O)N[C@H]3C4CC5CC3C[C@](O)(C5)C4)c2n1	2.3	–	–
O=C(N[C@H]1C2CC3CC1C[C@](O)(C3)C2)c1cnn2cccnc12	1.4	–	–
O=C(N[C@H]1C2CC3CC1C[C@](O)(C3)C2)c1cnc2cccnn12	1.2	–	–
COc1cnc2c(C(=O)N[C@H]3C4CC5CC3C[C@](O)(C5)C4)cnn2c1	1.8	–	–
Cc1ccnc2c(C(=O)N[C@H]3C4CC5CC3C[C@](O)(C5)C4)cnn12	2	–	0.3
O=C(N[C@H]1C2CC3CC1C[C@](O)(C3)C2)c1cnn2cc(Cl)cnc12	1.8	44 ×10⁻⁶ cm/s	0.3
COCc1cc(C)n2ncc(C(=O)N[C@H]3C4CC5CC3C[C@](O)(C5)C4)c2n1	1.8	–	–
Cc1cc(C(F)F)n2ncc(C(=O)N[C@H]3C4CC5CC3C[C@](O)(C5)C4)c2n1	2.2	–	–
Cc1cnc2c(C(=O)N[C@H]3C4CC5CC3C[C@](O)(C5)C4)cnn2c1	1.7	29 ×10⁻⁶ cm/s	0.3
Cc1cc(C)n2ncc(C(=O)N[C@H]3C4CC5CC3C[C@](O)(C5)C4)c2n1	2	–	–
O=C(N[C@H]1C2CC3CC1C[C@](O)(C3)C2)c1cnn2ccccc12	1.5	–	–
COCc1cc(C)nc2c(C(=O)N[C@H]3C4CC5CC3C[C@](C#N)(C5)C4)cnn12	2.7	–	–
